According to patent US4831053A, “Composition for prophylaxis and therapy of hepatitis” (Otsuka Pharmaceutical Co., Ltd., priority 1979, dated 1989):

Legend:
[1] = tested on: chronic hepatitis; experiment: Clinical data: patient with chronic hepatitis, GOT, GPT and serum bilirubin before and after administration; format: in vivo; conditions: human, oral, about 500 mg twice a day
Procedure: This treatment was continued for 2 months.
The levels of glutamic oxalacetic transaminase (GOT), glutamic pyruvic transaminase (GPT) and serum bilirubin (SB) were determined according to the conventional methods described in Am. J. Clin. Path., 28, 56-63 (1957) (for GOT and GPT) and in J. Biol. Chem., 119, 481-490 (1937) (for SB), and compared with the data obtained before the administration, as shown in Table below.

[2] = tested on: complement; experiment: Anti-complement activity
Procedure: A 30-liter jar fermentor was charged with 20 liters of a culture medium of the above formulation, and one flask of the resulting seed culture was cultivated in the culture medium at 28° C. for 5 days with stirring at 300 rpm at an aeration rate of 1 liter per liter of the culture medium per minute. The resulting culture broth was centrifuged at a speed of 8,000 rpm to remove the microbial cells. To the supernatant liquid was added 5 liters of methanol, and the mixture was stirred and then allowed to stand for 3 hours. The mixture was centrifuged and the solid material was removed. The supernatant was extracted with an equal quantity, by volume, of ethyl acetate. The solvent of the ethyl acetate layer was distilled off under reduced pressure. The residue was dissolved in methanol, and passed through a column of activated carbon. The eluate was concentrated to dryness under reduced pressure. The dried mass was dissolved in a mixture of chloroform and ethyl acetate (1:1, v/v) and gel-filtered through a column of Sephadex LH-20. […] The compound had the following physicochemical characteristics.

[3] = Acute toxicity (intravenous); conditions: in vivo, rat
Procedure: The acute toxicity of the compound obtained in Synthesis Example 2 was determined by administering it intravenously to rat. The LD50 value obtained was 500 mg/kg.

[4] = Tautomer equilibrium in solution (NMR); format: physicochemical; conditions: methanol or pyridine as solvent
Procedure: Integration of the areas under the peak signals indicates a proportion of the former to the latter of about 73:27. After 2 hours the peak at 9.89 ppm increase further to an extent that the integrated proportions become about 70:30, and this proportion remains unchanged according to NMR analysis even after 63 hours. From this it follows that the compound represented by formula (I) and that represented by formula (II) are present in a molar proportion of about 7:3 in the solution. However, when methanol or pyridine is used as a solvent, the compound of formula (II) is not formed.

[5] = tested on: fulminant hepatitis (Schwarzman hepatitis); experiment: Schwarzman hepatitis (endotoxin-induced fulminant hepatitis): serum GOT and LDH levels, liver sections; format: in vivo, S.D. strain rats
Procedure: The test for evaluating the prophylactic and therapeutic effect of the compound represented by the formula (I) or (II) was conducted in accordance with the method of Mori et al., Kanzo, Vol. 17, pp. 580-589 (1976), using S.D. strain rats having a body weight of about 300 g as test animals, and causing fulminant hepatitis (Schwarzman hepatitis) to occur. More particularly, 4 test groups, each consisting of 5 S.D. strain rats, were administered 0.1 mg/body of endotoxin (LPS: E. coli 0.26: B6, a product of Difco Co.) peritoneally (by injection), and after 48 hours the same endotoxin preparation was administered by injection to each group at a dosage of 0.05, 0.2, 0.5 or 1.2 mg/body for boostering. On the other hand, 5 mg/body of the active ingredient of the agent of this invention was administered peritoneally by injection once a day for 6 days. This treatment was initiated 2 days before the first administration of endotoxin took place and ended on the day after the second administration of endotoxin for boostering. The test animals were victimized (i.e., destroyed and analyzed) 48 hours after the second administration of endotoxin, and the levels of GOT and LDH in the serum of the victimized rats were determined using a UV method described in American Journal of Clinical Pathology, Vol. 47, pp. 419-428 (1967) and Cancer Research, Vol. 14, pp. 513-515 (1954). In addition, degree of occurrence of hepatic necrosis and distribution of endotoxin in the liver were obseved microscopically using sections of liver of the victimized animals. The compound obtained in Synthesis Example 2 was used as the active ingredient. The same procedure was repeated on animals of 4 control groups which were not administered the active ingredient. The levels of GOT and of LDH in the serum determined for the group which received endotoxin boostering amount of 0.5 mg/body at the second administration and for the control group are shown in FIGS. 1 and 2, respectively. In FIGS. 1 and 2, the symbol o indicates the values obtained for each test animal in the group. Evaluation of the results was made based on the average value ± an error obtained by statistical treatment thereof. […] The sections of livers of the test animals of the same groups as above were observed using the fluorescence antibody method described in Journal of Experimental Medicine, Vol. 91, pp. 1-13 (1950).

[6] = microscopic observation of liver sections (×100), FIG. 3b
[7] = rat, 5 mg/body i.p. once a day for 6 days, endotoxin booster 0.5 mg/body, vs control group

With `CC1CCC2C(C)(C)C(O)C(O)CC2(C)C12Cc1c(O)cc(C(=O)O)c(C=O)c1O2` (stereo not shown) [Synthesis Example 3, disodium 6,7-dihydroxy-2,5,5,8a-tetramethyl-1,2,3,4,4a,5,6,7,8,8a-decahydronaphthalene-1-spiro-2'-(6'-carboxylate-7'-formyl-4'-oxide-2',3'-dihydrobenzofuran)] the “feeling with respect to fatigue and loss of strength” value ([1]; 2 months, described by patient) was “considerably improved feeling”, the “SB (serum bilirubin)” value ([1]; after administration (2 months), before: 2.6) was 1.5 mg/dL and the GPT ([1]; after administration (2 months), before: 143) was 67 unit. It also gave a GOT ([1]; after administration (2 months), before: 180) of 45 unit.
For `CC1CCC2C(C)(C)C(O)C(O)CC2(C)C12Cc1c(O)cc(C=O)c(C=O)c1O2` (stereo not shown) [Synthesis Example 1, 6,7-dihydroxy-2,5,5,8a-tetramethyl-1,2,3,4,4a,5,6,7,8,8a-decahydronaphthalene-1-spiro-2'-(6',7'-diformyl-4'-hydroxy-2',3'-dihydrobenzofuran)], the anti-complement activity [2] was “having an anti-complement activity”.
With `CC1CCC2C(C)(C)C(O)C(O)CC2(C)C12Cc1c(O)cc3c(c1O2)C(O)OC3=O` (stereo not shown) [Synthesis Example 2, 4,8-dihydroxy-6-oxo-2,3,6,8-tetrahydro-furo[3,4-g]benzofuran-2-spiro-1'-(6',7'-dihydroxy-2',5',5',8'a-tetramethyl-1',2',3',4',4'a,5',6',7',8',8'a-decahydronaphthalene)] the LD50 [3] was 500 mg/kg, the “formation of compound of formula (II) in solution” value [4] was “not formed” and the “distribution of endotoxin in the liver” value ([5]; fluorescence antibody method, liver sections, FIG. 4b) was “strongly localized in Kupffer cells but scarcely outside the cells”. The “degree of cell degeneration of liver cells” value [5, 6] was “very slight”, the “occurrence of damage of cells of liver” value [5, 6] was “significantly inhibited or such damage was substantially cured” and the “level of GOT in the serum” value [5, 7] was “significantly lower than those of the control group”. For the same molecule, the “level of LDH in the serum” value [5, 7] was “significantly lower than those of the control group” and the “occurrence of fulminant hepatitis (Schwarzman hepatitis)” value ([5]; rat, 5 mg/body i.p. once a day for 6 days, from GOT and LDH levels) was “significantly inhibits the occurrence of fulminant hepatitis”.
